Read-outs that look alike come from different tables or passages of the source. Where a SMILES comes first, the peptide text is derived from it. [ ]: non-standard residue; d: D form. The star is where a group is joined. NOTA = O=C(O)CN1CCN(CC(=O)O)CCN(CC(=O)*)CC1; NH(4-amidinobenzyl) = N=C(N)c1ccc(CN*)cc1
Tests used:
[1] = set-up: method as in Kwiatkowska et al [22]; details: ex vivo mouse plasma; ref Kwiatkowska et al [22]; cited from earlier work
[2] = LNCaP cell-based peptide stability assay; format: in vitro ADME; details: human, LNCaP cells, HPLC, read-out: T½ LNCaP cells (converted)
Experimental: (§1) LNCaP cell-based stability assays were performed in Poly-(L)lysine coated 96-wells plates seeded at a density of 1,500 cells/wells. 100 μg of peptides were added 24 hours after plating without media change. Media was collected and mixed with 5 μL of trifluororacetic acid 5% to stop peptide degradation. Ex vivo plasmatic stability assays were performed as previously described. Briefly, compounds (0.5 μg/μL) were incubated with CD1 mouse plasma from mixed-sex animals collected with heparin sodium (Novi, USA). Reaction was stop by addition of 150 μL guanidine HCl and 300 μL of acetonitrile and peptides were extracted by centrifugation. For both in vitro and ex vivo stability assays, peptide stability was assessed from reverse phase HPLC and percentage of remaining peptide was calculated from area under curve and normalized to time 0.

[3] = system: LNCaP prostate cancer cell line; details: MTT assay; ref Kwiatkowska et al [22]; cited from earlier work
LNCaP xenograft [4] = test: LNCaP xenograft, intratumoral administration; format: in vivo, Nu/Nu male mice; details: intra-tumoral, 50 μg/tumor per 48 h; vehicle 400 ± 100%
Experimental: For tumor implantation, trypsin-harvested LNCaP cell suspension was mixed with equal volume of matrigel (BD Biosciences, Bedford, MA) on ice and subcutaneously injected (200 μL) at 4 different sites (left/right hip and left/right shoulder) on Nu/Nu male mice (Charles River Laboratories, LaSalle, Canada) at density of 2 million cells/site. Tumors were periodically measured and the tumor volumes were calculated from the equation: Length•width^2•π/6. When tumors were fully formed and palpable, mice were divided into treatment groups. For intratumoral administration of the compound, 20 μL of peptides (2.5 μg/μL) or vehicle (5% Dimethyl sulfoxide in sterile saline) was administered directly into the tumor at interval of 48 hours. For intra-venous administration experiments, 100 μL of peptide solution (2 mg/kg) or vehicle (saline) was administered through tail vein at interval of 24 hours. […] Blood sampling (50–75 μL) from saphenous vein was performed weekly and plasma was stored at −80°C for Prostate-specific antigen (PSA) serum levels determination using a PSA EIA assay (ClinPro International, USA). Mice were housed under pathogen-free conditions and manipulations were performed in a biosafety cabinet. All experimental procedures were in accordance with the Canadian Council on Animal Care.

[5] = system: DU145 prostate cancer cell line; details: MTT assay; ref Kwiatkowska et al [22]; cited from earlier work
[6] = system: LNCaP prostate cancer cell line; format: cell-based; details: 72 h
Experimental: (§2) Cell lines were obtained from ATCC and maintained in RPMI-1640 5% FBS (DU145) and 10% FBS (LNCaP). For MTT proliferation assays, peptides were added 24 hours after seeding in 96-well plates as previously described and incubated 72 hours prior to addition of MTT reagent (Sigma-Aldrich, Canada) at final concentration of 1 mg/mL [21, 22]. Formazan salt was solubilized with 100 μL Isopropanol: HCl (24:1N) and metabolic activity was normalized relatively to vehicle-treated cells (Sterile bidistilled water). IC50 were determined using Prism 5.0 (GraphPad Software, USA).

[7] = system: DU145 prostate cancer cell line; format: cell-based; details: 72 h
Experimental: as §2

[8] = Pharmacokinetic assay, intravenous 2 mg/kg, LC-MS/MS; format: in vivo; details: mouse, plasma, CD1 mice; for AUC: read-out: AUC calculated; for half-life: read-out: Half-life (in vivo plasma); for Vd: read-out: Volume of distribution
Experimental: To determine pharmacokinetic profiles of peptides, a single dose of 2 mg/kg was administered into systemic circulation from tail vein of CD1 mice (n = 4 animal/peptide). Blood was micro sampled on individual mouse at time 2.5, 5, 10, 20, 30 and 60 minutes. Plasma was collected by centrifugation and proteins were cleared from plasma using acetonitrile precipitation and supernatant was filtered using 0.2 μm PVDF centrifugal device (Canadian Life Science, Canada). Sample were analysed at PhenoSwitch Bioscience (Sherbrooke, Canada) by LC-MS/MS on a TripleTOF 5600 mass spectrometer (ABSciex, USA) equipped with DuoSpray source. Further information on mass spectrometry analyses and parameters used are presented in supplementary material.

LNCaP xenograft [9] = test: LNCaP xenograft, systemic (iv) administration; format: in vivo, Nu/Nu male mice; details: daily 2 mg/kg iv; similar in control group
Experimental: For tumor implantation, trypsin-harvested LNCaP cell suspension was mixed with equal volume of matrigel (BD Biosciences, Bedford, MA) on ice and subcutaneously injected (200 μL) at 4 different sites (left/right hip and left/right shoulder) on Nu/Nu male mice (Charles River Laboratories, LaSalle, Canada) at density of 2 million cells/site. Tumors were periodically measured and the tumor volumes were calculated from the equation: Length•width^2•π/6. When tumors were fully formed and palpable, mice were divided into treatment groups. For intratumoral administration of the compound, 20 μL of peptides (2.5 μg/μL) or vehicle (5% Dimethyl sulfoxide in sterile saline) was administered directly into the tumor at interval of 48 hours. For intra-venous administration experiments, 100 μL of peptide solution (2 mg/kg) or vehicle (saline) was administered through tail vein at interval of 24 hours. The total tumor volume per animal was normalized using the following formula: (total tumor volume/total tumor volume at day 27 × 100). Blood sampling (50–75 μL) from saphenous vein was performed weekly and plasma was stored at −80°C for Prostate-specific antigen (PSA) serum levels determination using a PSA EIA assay (ClinPro International, USA). Mice were housed under pathogen-free conditions and manipulations were performed in a biosafety cabinet. […]

[10] = Ex vivo plasmatic stability assay; format: in vitro ADME; details: both sexes, CD1; ex vivo mouse plasma; read-out: T½ plasma (converted)
Experimental: as §1

[11] = molecular target: T1, human recombinant and soluble PACE4 (Homo sapiens, UniProt P29122); details: ref Kwiatkowska et al [22]; cited from earlier work
T1 construct: made in house; host or cells: S2 insect cells (Drosophila Schneider 2)
T1 sequence (P29122 150-969): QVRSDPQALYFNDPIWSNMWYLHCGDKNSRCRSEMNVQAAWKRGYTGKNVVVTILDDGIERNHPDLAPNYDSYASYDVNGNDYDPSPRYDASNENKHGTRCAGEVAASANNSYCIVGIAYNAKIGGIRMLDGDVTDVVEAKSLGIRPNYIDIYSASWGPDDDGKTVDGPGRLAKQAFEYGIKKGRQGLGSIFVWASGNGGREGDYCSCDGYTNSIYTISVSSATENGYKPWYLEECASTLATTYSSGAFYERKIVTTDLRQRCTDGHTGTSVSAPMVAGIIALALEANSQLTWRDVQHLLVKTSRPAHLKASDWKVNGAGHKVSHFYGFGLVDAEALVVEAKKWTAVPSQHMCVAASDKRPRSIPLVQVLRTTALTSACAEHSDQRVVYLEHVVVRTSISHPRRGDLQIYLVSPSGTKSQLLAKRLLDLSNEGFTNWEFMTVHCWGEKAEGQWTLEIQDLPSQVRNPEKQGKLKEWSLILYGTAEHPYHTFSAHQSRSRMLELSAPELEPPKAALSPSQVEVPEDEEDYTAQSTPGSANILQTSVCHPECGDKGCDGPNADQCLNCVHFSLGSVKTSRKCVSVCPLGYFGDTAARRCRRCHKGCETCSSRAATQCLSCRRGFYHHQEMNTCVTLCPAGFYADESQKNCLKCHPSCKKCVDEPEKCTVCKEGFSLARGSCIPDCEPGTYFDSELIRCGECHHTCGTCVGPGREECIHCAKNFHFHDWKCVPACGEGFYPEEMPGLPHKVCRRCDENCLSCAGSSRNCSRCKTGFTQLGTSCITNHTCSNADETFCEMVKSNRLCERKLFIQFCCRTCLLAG

[12] = molecular target: T1, human recombinant and soluble PACE4; test: Enzymatic assay, inhibition constant toward PACE4; format: biochemical
Experimental: Inhibition constants (Ki) were determined using human recombinant and soluble PACE4 and furin produced in S2 insect cells and purified as previously described. The enzymatic assays were performed as described.

Row | Molecule | T½ plasma [1] [h] | half-life [2] [h] | clearance [8] [mL/min] | AUC [8] [ng·h/mL] | half-life [8] [min] | Vd [8] [L] | also measured
1 | CC(=O)N[C@@H](CC(C)C)C(=O)N[C@@H](CC(C)C)C(=O)N[C@@H](CC(C)C)C(=O)N[C@@H](CC(C)C)C(=O)N[C@@H](CCCN=C(N)N)C(=O)N[C@H](C(=O)N[C@@H](CCCCN)C(=O)NCc1ccc(C(=N)N)cc1)C(C)C [Ac-LLLLRVK-Amba] (Ac-LLLLRVK-{NH(4-amidinobenzyl)}) | 12 ± 2 | > 72 |  |  |  |  | 
2 | CC(=O)N[C@@H](CC(C)C)C(=O)N[C@@H](CC(C)C)C(=O)N[C@@H](CC(C)C)C(=O)N[C@@H](CC(C)C)C(=O)N[C@@H](CCCNC(=N)N)C(=O)N[C@H](C(=O)N[C@@H](CCCCN)C(=O)NCc1ccc(C(=N)N)cc1)C(C)C [Ac-LLLLRVK-Amba] (Ac-LLLLRVK-{NH(4-amidinobenzyl)}) |  |  |  |  |  |  | IC50 [3]: 40 ± 15 µM; mean tumoral volume at day 59 compared to day 25 (LNCaP xenograft [4]): 100 ± 30%; IC50 [5]: 25 ± 10 µM
3 | CC(=O)N[C@H](CC(C)C)C(=O)N[C@@H](CC(C)C)C(=O)N[C@@H](CC(C)C)C(=O)N[C@@H](CC(C)C)C(=O)N[C@@H](CCCNC(=N)N)C(=O)N[C@H](C(=O)N[C@@H](CCCCN)C(=O)NCc1ccc(C(=N)N)cc1)C(C)C [Ac-[DLeu]LLLRVK-Amba] (Ac-[dL]LLLRVK-{NH(4-amidinobenzyl)}) |  | > 72 | 0.5 ± 0.1 | 2170 | 9 ± 3 | 0.006 ± 0.004 | IC50 [6]: 40 ± 10 µM; IC50 [7]: 25 ± 10 µM; body weight loss (LNCaP xenograft [9]): 10%; half-life at 0.5 μg/μL [10]: 18 ± 3 h
4 | CC(=O)N[C@H](CC(C)C)C(=O)N[C@@H](CC(C)C)C(=O)N[C@@H](CC(C)C)C(=O)N[C@@H](CC(C)C)C(=O)N[C@@H](CCCNC(=N)N)C(=O)N[C@H](C(=O)N[C@@H](CCCCN)C(=O)N[C@@H](CCCNC(=N)N)C(N)=O)C(C)C [Ac-[DLeu]LLLRVKR-NH2] | 8 ± 1 | 38 ± 8 |  |  |  |  | Ki PACE4 [11]: 0.023 ± 0.001 µM
5 | CC(C)C[C@H](NC(=O)[C@H](CC(C)C)NC(=O)[C@H](CC(C)C)NC(=O)[C@@H](CC(C)C)NC(=O)CN1CCN(CC(=O)O)CCN(CC(=O)O)CC1)C(=O)N[C@@H](CCCNC(=N)N)C(=O)N[C@H](C(=O)N[C@@H](CCCCN)C(=O)NCc1ccc(C(=N)N)cc1)C(C)C [NOTA-[DLeu]LLLRVK-Amba] ({NOTA}-[dL]LLLRVK-{NH(4-amidinobenzyl)}) |  |  |  |  |  |  | Ki PACE4 [12]: 0.006 ± 0.002 µM
6 | Ac-LLLLRVKR-NH2 [Ac-LLLLRVKR-NH2] | 5.1 ± 0.8 | 21 ± 2 | 0.6 ± 0.1 | 1670 | 8 ± 5 | 0.008 ± 0.007 | 

Source: paper PMC4414146, “PACE4 inhibitors and their peptidomimetic analogs block prostate cancer tumor progression through quiescence induction, increased apoptosis and impaired neovascularisation” (Oncotarget, 2015)
